Measurements taken from paper PMC6691884 (Journal of Enzyme Inhibition and Medicinal Chemistry, 2019).

How the values were obtained:
BsuCA 1 = molecular target: T1, BsuCA 1 (Brucella suis, UniProt A0A0H3GDA4); conditions: activation constant (not association constant); activator; CO2 substrate; 10 mM Tris pH 8.4, 0.1 M Na2SO4, 25 °C; 15 min pre-incubation
T1 construct: gene BS1330_I1823

FtuCA = molecular target: T2, FtuCA (Francisella tularensis, UniProt Q5NH77); conditions: activation constant (not association constant); activator; CO2 substrate; 10 mM Tris pH 8.4, 0.1 M Na2SO4, 25 °C; 15 min pre-incubation
T2 construct: gene cynT
T2 sequence (Q5NH77 1-228): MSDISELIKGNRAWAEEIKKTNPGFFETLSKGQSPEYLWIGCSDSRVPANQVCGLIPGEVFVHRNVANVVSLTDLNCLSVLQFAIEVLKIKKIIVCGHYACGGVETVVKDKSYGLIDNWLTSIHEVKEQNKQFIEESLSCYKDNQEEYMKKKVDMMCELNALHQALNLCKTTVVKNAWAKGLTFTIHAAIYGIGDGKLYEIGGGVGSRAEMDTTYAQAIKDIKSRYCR

T1 sequence (A0A0H3GDA4 1-213): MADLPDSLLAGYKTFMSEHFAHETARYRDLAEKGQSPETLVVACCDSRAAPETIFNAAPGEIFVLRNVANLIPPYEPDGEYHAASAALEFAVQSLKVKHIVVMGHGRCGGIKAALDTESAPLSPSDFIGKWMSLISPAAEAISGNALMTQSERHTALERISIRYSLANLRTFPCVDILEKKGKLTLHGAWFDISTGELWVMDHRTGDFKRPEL

Row | SMILES | KA (μM)^a / BsuCA1 ^c (BsuCA 1) [µM] | KA (μM)^a / FtuCA^c (FtuCA) [µM]
1 | N[C@H](Cc1ccccc1)C(=O)O [compound 4, D-Phe] | 1.21 | 
2 | NC(=O)CC[C@H](N)C(=O)O [compound 24, L-Gln] |  | 45.7
3 | NCCc1ccc(O)c(O)c1 [compound 13, Dopamine] | 1.54 | 
4 | N[C@H](CCC(=O)O)C(=O)O [compound 23, D-Glu] | 1.39 | 
5 | N[C@@H](Cc1c[nH]c2ccccc12)C(=O)O [compound 7, L-Trp] | 1.25 | 34.1
6 | N[C@@H](Cc1ccc(O)c(O)c1)C(=O)O [compound 5, L-DOPA] | 2.07 | 
7 | NCc1ccccn1 [compound 15, 2-Pyridyl-methylamine] | 1.62 | 46.3
8 | Nc1ccc(C[C@H](N)C(=O)O)cc1 [compound 11, 4-H2N-L-Phe] | 1.18 | 
9 | N[C@@H](Cc1ccc(O)cc1)C(=O)O [compound 9, L-Tyr] | 1.38 | 
10 | N[C@@H](Cc1cnc[nH]1)C(=O)O [compound 1, L-His] | 1.76 | 40.7
11 | N[C@H](Cc1ccc(O)c(O)c1)C(=O)O [compound 6, D-DOPA] |  | 44.8
12 | CNC[C@H](O)c1ccc(O)c(O)c1 [compound 19, L-Adrenaline] | 0.70 | 
13 | N[C@H](Cc1ccc(O)cc1)C(=O)O [compound 10, D-Tyr] | 0.95 | 
14 | N[C@H](Cc1c[nH]c2ccccc12)C(=O)O [compound 8, D-Trp] |  | 30.5
15 | N[C@@H](CCC(=O)O)C(=O)O [compound 22, L-Glu] |  | 9.13
16 | NCCN1CCNCC1 [compound 17, 1-(2-Aminoethyl)-piperazine] |  | 51.8
